Source: PMC12040169 (PLOS Biology, 2025)

Test: in vitro
Conditions: human, hela cells, % viability

Compound | viability at 28.5 h, 10 µM [%]
Cc1cc(=O)n(CC(=O)NCCn2ccnc2)c2ccccc12 [CBK281583] | 94.3
Cc1cc(C)n(-c2cccc(C(=O)NCCn3ccnc3)c2)n1 [CBK281585] | 109
CCc1[nH]c(=O)c(C(=O)N2CCc3[nH]c4c(C)cccc4c3C2)cc1C [CBK281586] | 97.6
Cc1nn(C)c(C)c1CN(C)C(=O)c1cc(-c2ccc(F)cc2)on1 [CBK281587] | 82.2
Cc1ccc(C2(C(=O)NCCCn3ccnc3C)CCOCC2)cc1 [CBK281588] | 91.6
Cc1nn(C)c(C)c1CN(C)S(=O)(=O)Cc1ccc(F)cc1 [CBK281590] | 86.8
Cc1ccc(C(NC(=O)Cn2ccnc2)c2ccncc2)cc1C (centres unmarked) [CBK281591] | 87.4
CCn1nc(C)c(-c2cncn2CC(C)N2CCC(C)CC2)c1C (centres unmarked) [CBK281593] | 103
Cc1nn(C)cc1C(C)NC(=O)C1(c2ccccc2F)CCOCC1 (centres unmarked) [CBK281594] | 80.8
CC1CCN(CCNC(=O)CCc2nc3ccc(Cl)cc3[nH]2)CC1 [CBK281599] | 88.7
Cc1cccc2c3c([nH]c12)CCN(C(=O)C(C)N1CCOCC1)C3 (centres unmarked) [CBK281600] | 89.2
CC(NC(=O)CCN1CCN(C)CC1)c1cc2cc(Cl)ccc2o1 (centres unmarked) [CBK281601] | 102
Cn1nccc1-c1cc(C(=O)NC2(C)CCC2)c2ccccc2n1 [CBK281605] | 92.7
CC1(NC(=O)Cn2c(C(F)(F)F)nc3ccccc32)CCC1 [CBK281606] | 82.2
Cc1nc(CN2CCN(C(=O)C3C4CCCCC43)CC2)cs1 (centres unmarked) [CBK281607] | 93.8
CCc1nc2cc(NC(=O)Cn3cc(C)cn3)ccc2n1CC [CBK281608] | 84.9
CCc1nc2cc(NC(=O)CCCn3ccnc3C)ccc2n1CC [CBK281609] | 101
CC1(NC(=O)CC2C(=O)NCCN2Cc2cccc(F)c2)CCC1 (centres unmarked) [CBK281611] | 80.9
CC(NC(=O)C1CC(=O)OC1(C)C)c1ccc2c(c1)CCCO2 (centres unmarked) [CBK281613] | 88.4
Cc1cc(C)n(C2CCN(Cc3c(C)nc4ccccn34)CC2)n1 [CBK281614] | 83.4
Cn1nccc1CN1CCC(Oc2ccccc2F)CC1 [CBK281618] | 92

Compound | viability at 28.5 h, 10 µM [%]
Cc1nccn1CC1CCCN(Cc2nc3ccccc3[nH]2)C1 (centres unmarked) [CBK281619] | 83.3
Cc1cc(C)n(C2CCN(Cc3nc4ccccc4[nH]3)CC2)n1 [CBK281620] | 103
Cc1ccc(OCCn2cncc2-c2cn(C)nc2C)cc1 [CBK281626] | 93.7
Cc1nn(CCNC(=O)C2CC(=O)N(CC(C)C)C2)c(C)c1C (centres unmarked) [CBK281630] | 88
O=C(NC1CCNC1)c1ccc(F)cc1 (centres unmarked) [CBK281632] | 87.2
Cc1ccnn1CCNC(=O)C(C)Cc1cccs1 (centres unmarked) [CBK281633] | 109
Cc1nc2ccc(NC(=O)CCn3nc(C)c(Cl)c3C)cc2s1 [CBK281634] | 106
Cc1ccc2oc(C(=O)N(CCO)CCc3ccncc3)c(C)c2c1 [CBK281642] | 106
O=C(c1cc2c(F)cccc2[nH]1)N(CCO)CCc1ccncc1 [CBK281644] | 98.3
Cc1cc(C)n(CC(C)NC(=O)C(c2ccccc2)N2CCCC2)n1 (centres unmarked) [CBK281645] | 82.1
Cc1nccn1CCCNC(=O)c1cccc(N2CCCCC2)c1 [CBK281646] | 91.4
Fc1cccc(-c2nc3c(s2)CN(C2CCOCC2)CC3)c1 [CBK281647] | 87
Cc1c(-c2cc(C(=O)NC(C)C3CC4CCC3C4)on2)cnn1C (centres unmarked) [CBK281651] | 92.8
Cc1c(-c2cc(C(=O)NC(C)C3CC4CCC3C4)no2)cnn1C (centres unmarked) [CBK281653] | 91.3
CC(NC(=O)c1ccccc1Cn1cncn1)C1CC2CCC1C2 (centres unmarked) [CBK281654] | 85.8
Cc1cccc2c3c([nH]c12)CCN(C(=O)[C@@H]1C[C@@H]2C=C[C@H]1C2)C3 [CBK281656] | 93.6
C[C@]12CN(C(=O)c3ccccc3)C[C@H]1NC(=O)c1ccccc1C2=O [CBK281657] | 102
C[C@]12CN(C(=O)C3CC3)C[C@H]1NC(=O)c1ccccc1C2=O [CBK281660] | 102
C=C1C2(C(=O)NCCn3nc(C)c(Cl)c3C)CCC(C2)C1(C)C (centres unmarked) [CBK281661] | 81.5
CC(NC(=O)C1CC(=O)N(c2cccc(F)c2)C1)C1CC2CCC1C2 (centres unmarked) [CBK281664] | 99.9
O=C(NCCCc1nc2cc(F)ccc2[nH]1)[C@@H]1C[C@@H]2C=C[C@H]1C2 [CBK281665] | 103

Compound | viability at 28.5 h, 10 µM [%]
CC(=O)NCc1ccc(-c2cc(CN(C)C)n(C)n2)cc1 [CBK281667] | 99.1
CCC(=O)NCc1ccc(-c2cc(CN(C)C)n(C)n2)cc1 [CBK281668] | 103
Cc1c(C)n(C)c2ccc(C(=O)NCCC(=O)N3CCOCC3)cc12 [CBK281669] | 65.8
Cc1cc(C)n(CC(C)NC(=O)c2cc(C(F)(F)F)nn2C)n1 (centres unmarked) [CBK281671] | 92.2
COCC(=O)N1CCc2nc(-c3ccc(F)cc3)sc2C1 [CBK281673] | 107
CN1CCCC(Cc2cc(-c3ccccc3)no2)(C(=O)N(C)C)C1 (centres unmarked) [CBK281674] | 102
CC1CCCCN1CC(C)(C)NC(=O)c1cc(C2CC2)on1 (centres unmarked) [CBK281676] | 100
O=C(O)C1(Cc2ccc(-c3cccs3)cc2)CCNC1 (centres unmarked) [CBK281679] | 90.8
Cc1nn(CCC(=O)NC2CCOc3ccccc32)c(C)c1Cl (centres unmarked) [CBK281684] | 96.7
CCN1C(=O)c2ccccc2C(=O)[C@@]2(C)CN(C(C)=O)C[C@@H]12 [CBK281686] | 89.7
O=C(O)C1(Cc2ccc(-c3ccccc3)cc2)CCNC1 (centres unmarked) [CBK281687] | 91.2
O=C(O)C1(Cc2cccc(-c3cccs3)c2)CCCNC1 (centres unmarked) [CBK281688] | 90.5
CC(=O)N(C)[C@H]1CC[C@]2(CC1)CNC(=O)c1cc(C)ccc1O2 [CBK281690] | 101
Cn1cc2c(n1)CC1CCC2N1C(=O)c1ccc(F)c(F)c1 (centres unmarked) [CBK281691] | 92.6
CC(C)C(=O)NCCn1nc(-c2ccccc2F)cc1CN(C)C [CBK281693] | 91.4
Cc1ccc(-c2cc(CC3(C(=O)N(C)C)CCCN(C)C3)on2)cc1 (centres unmarked) [CBK281695] | 89.3
NCCn1cc(-c2cccc(F)c2)c(C2CCOCC2)n1 [CBK281696] | 91.1
CCN1CCc2cc(-c3cncn3CC(=O)NC(C)(C)C)ccc21 [CBK281698] | 94.8
CC1Cc2cc(-c3cncn3CC(=O)NC(C)(C)C)ccc2N1C (centres unmarked) [CBK281699] | 77.3
CC1CCN(C(C)Cn2cncc2-c2cnn(C)c2)CC1 (centres unmarked) [CBK281703] | 95.5
CCn1cc(-c2cncn2CCCC(C)(C)CO)cn1 [CBK281704] | 88.3

Compound | viability at 28.5 h, 10 µM [%]
Cc1cc(CN(C)Cc2ccc3c(c2)n(C)c(=O)n3C)n[nH]1 [CBK281705] | 101
Cc1cc(CN(C)Cc2c(-c3ccccc3)nn(C)c2C)n[nH]1 [CBK281707] | 88.8
CCn1cc(-c2cncn2CCn2nc(C)c(Cl)c2C)cn1 [CBK281708] | 87.9
CC(CN1CCCC1)NC(=O)c1ccc2c(c1)ncn2C (centres unmarked) [CBK281715] | 102
Cc1cc(CN(C)Cc2c(C)nc3c(C)cccn23)n[nH]1 [CBK281716] | 99.1
CN(CC1(C)COC1)C(=O)CCc1nc2ccccc2[nH]1 [CBK281719] | 88.8
CN(CC1(C)COC1)C(=O)c1cn2cc(Cl)ccc2n1 [CBK281721] | 109
CN(CC1(C)COC1)C(=O)C(c1ccc(F)cc1)N(C)C (centres unmarked) [CBK281722] | 107
Cc1ccc2c(c1)cc(C(=O)N(C)CC1(C)COC1)n2C [CBK281723] | 86.4
CC1CCN(c2ccc(C(C)NC(=O)Cn3cccn3)cc2)CC1 (centres unmarked) [CBK281725] | 86.1
CCC1C(=O)NCCN1C(=O)c1cc2cc(C)ccc2n1C (centres unmarked) [CBK281729] | 110
Cc1nn(C)cc1C(C)NC(=O)c1cn2cccc(C)c2n1 (centres unmarked) [CBK281731] | 92.1
COc1ccc2c(CN(C)Cc3cc(C)[nH]n3)cn(C)c2c1 [CBK281734] | 103
C[C@H]1CN(C(=O)c2cc(C3CC3)no2)[C@@H](C)CN1Cc1ccco1 [CBK281736] | 106
CC(Cn1cncc1-c1cnn(C)c1)Oc1ccccc1Cl (centres unmarked) [CBK281737] | 105
Cc1nn(C)cc1-c1cncn1C(C)(C)CN1CCC(C)CC1 [CBK281740] | 108
CN(C)CCC(c1ccccc1)n1cncc1-c1cnn(C)c1 (centres unmarked) [CBK281742] | 93.6
Cc1nccn1C(C(=O)NCC1(C)COC1)c1ccccc1 (centres unmarked) [CBK281743] | 97.9
Cc1ccc(-c2cc(C(=O)NCC3(C)COC3)no2)cc1 [CBK281744] | 93.8
CC1(CNC(=O)c2ccc(N3CCCCC3)cc2)COC1 [CBK281746] | 105
